US9593155B2, “Oxyntomodulin analogs” (priority 2009, dated 2017)
Like-named read-outs stand apart in the source and are kept apart here. *1 amine or outer side, *2 acyl side, *3 side chain or, on linkers, in order; H or OH if unused. Where a SMILES comes first, the peptide text is derived from it. Bridges are numbered along the chain shown (N, C = ends). Where no end group is shown, it is not given here. Side-chain parts run from the residue outwards. [ ]: non-standard residue; d: D form. The star is where a group is joined. ξ: configuration not given here. C10 = S-[42-(cholest-5-en-3-yloxy)-2,42-dioxo-6,9,12,15,18,21,24,27,30,33,36,39-dodecaoxa-3-azadotetracont-1-yl]-L-cysteine, Cys(oxa12-cholesterol), CC(C)CCC[C@@H](C)[C@H]1CC[C@H]2[C@@H]3CC=C4C[C@@H](OC(=O)CCOCCOCCOCCOCCOCCOCCOCCOCCOCCOCCOCCOCCNC(=O)CSC[C@H](N[*:1])C(=O)[*:2])CC[C@]4(C)[C@H]3CC[C@]12C; X1 = CC(C)CCCC(C)[C@H]1CCC2C3CC=C4C[C@@H](OC(=O)CCOCCOCCOCCOCCOCCOCCOCCOCCOCCOCCOCCOCCNC(=O)C*)CC[C@]4(C)C3CC[C@@]21C; CH2CO2(3ξ-cholesteryl) = CC(C)CCC[C@@H](C)[C@H]1CC[C@H]2[C@@H]3CC=C4CC(OC(=O)C*)CC[C@]4(C)[C@H]3CC[C@]12C; γGlu = O=C(O)[C@H](CCC(=O)[*:2])N[*:1]; mPEG2 40kDa = C3 = Cys(mPEG)2 40 kDa; Palmitoyl = CCCCCCCCCCCCCCCC(=O)*; Met(O) = CS(=O)CC[C@H](N)C(=O)O; Nle = CCCC[C@H](N)C(=O)O; Ac4c = NC1(C(=O)O)CCC1; Aib = CC(C)(N)C(=O)O

Tests used:
hGCGR = hGCGR (Homo sapiens, UniProt P47871); experiment: fluorescence cell based cAMP assay, CHO cells stably expressing GCGR; conditions: for Receptor Selectivity: GLP-1R/GCGR, Table 6
Experimental: We initially screened peptides in fluorescence cell based assays that measure production of cyclic-AMP (cAMP), using CHO cell lines stably expressing either recombinant human GLP-1R or human GCGR. Determination of Mouse and human GLP-1R and GCGR Agonist Activity was essentially as follows. CHO cells stably expressing mouse or human GLP-1R or GCGR were grown in Iscove's Modified Dulbecco's Medium (IMDM), 10% FBS, 1 mM L-glutamine, penicillin-streptomycin (100 μ/mL) and 750 μg G418/mL for three-four days before harvesting using Enzymefree Dissociation Media (EFDM, Specialty Media). […] The assay was terminated with the addition of the LANCE kit Detection buffer as per the manufacturer's instructions. The plates were held an additional hour at room temperature, then increasing cAMP levels were detected by a decrease in TR-FRET signal as measured in an EnVision counter (PerkinElmer) in comparison to a standard curve of cAMP as per the manufacturer's instructions. Data were analyzed using the linear and nonlinear regression analysis software, GraphPad Prism.
The in vitro potencies shown in Table 10 or Table 11 were determined from the results of assays that were similar to either the cell-based cAMP assays described herein above (Table 10) or the cell-based cAMP assays described in International Published Application No. WO2008101017, which is incorporated herein in its entirety, in particular the cell-based cAMP assays described therein (Table 11).

[1] = pI of the peptide analogs

Chain of hGCGR (P47871 26-477): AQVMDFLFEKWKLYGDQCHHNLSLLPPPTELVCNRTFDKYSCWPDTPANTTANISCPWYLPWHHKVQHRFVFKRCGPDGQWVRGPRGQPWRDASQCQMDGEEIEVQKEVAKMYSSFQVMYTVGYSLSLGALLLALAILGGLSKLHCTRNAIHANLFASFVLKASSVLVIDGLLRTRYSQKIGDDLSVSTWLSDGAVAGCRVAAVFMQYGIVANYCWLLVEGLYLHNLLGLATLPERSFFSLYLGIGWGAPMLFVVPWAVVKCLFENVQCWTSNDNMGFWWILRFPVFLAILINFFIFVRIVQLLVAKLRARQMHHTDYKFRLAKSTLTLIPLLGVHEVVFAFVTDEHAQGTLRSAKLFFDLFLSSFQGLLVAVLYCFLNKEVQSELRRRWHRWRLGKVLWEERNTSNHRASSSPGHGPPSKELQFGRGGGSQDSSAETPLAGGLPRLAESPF

| Compound | pI ([1]; Table 10) | pI [1] | also measured |
| --- | --- | --- | --- |
| HαQGTFTSDYSC3YLDSRRAQDFVQWLmNTKRNRNNIA-CONH2 (H[Aib]QGTFTSDYSC(mPEG2 40kDa)YLDSRRAQDFVQWL[Met(O)]NTKRNRNNIA-NH2; not fully specified; printed as HαQGTFTSDYSC3YLDSRRAQDFVQWLmNTKRNRNNIA-CONH2) [OXM124] |  |  | Receptor Selectivity (hGCGR): 0/0 |
| CCCCCCCCCCCCCCCC(=O)N[C@@H](CCC(=O)N[C@@H](CCC(=O)NCCCC[C@H](NC(=O)[C@H](CC(=O)O)NC(=O)[C@H](CO)NC(=O)[C@@H](NC(=O)[C@H](Cc1ccccc1)NC(=O)[C@@H](NC(=O)CNC(=O)[C@H](CCC(N)=O)NC(=O)C(C)(C)NC(=O)[C@@H](N)Cc1c[nH]cn1)[C@@H](C)O)[C@@H](C)O)C(=O)N[C@@H](CO)C(=O)N[C@@H](CCCCN)C(=O)N[C@@H](Cc1ccc(O)cc1)C(=O)N[C@@H](CC(C)C)C(=O)N[C@@H](CC(=O)O)C(=O)N[C@@H](CCC(=O)O)C(=O)N[C@@H](CCCNC(=N)N)C(=O)N[C@@H](CCCNC(=N)N)C(=O)N[C@@H](C)C(=O)N[C@@H](CCC(N)=O)C(=O)N[C@@H](CC(=O)O)C(=O)N[C@@H](Cc1ccccc1)C(=O)N[C@H](C(=O)N[C@@H](CCC(N)=O)C(=O)N[C@@H](Cc1c[nH]c2ccccc12)C(=O)N[C@@H](CC(C)C)C(=O)N[C@@H](CCSC)C(=O)N[C@@H](CC(N)=O)C(=O)N[C@H](C(=O)N[C@@H](CCCCN)C(N)=O)[C@@H](C)O)C(C)C)C(=O)O)C(=O)O [OXM416] (H-H[Aib]QGTFTSDK([γGlu-γGlu-Palmitoyl])SKYLDERRAQDFVQWLMNTK-NH2) | 5.5 |  |  |
| HαQGTFTSDYC3KYLDSRRAQDFVQWLmNTKRNRNNIA-CONH2 (H[Aib]QGTFTSDYC(mPEG2 40kDa)KYLDSRRAQDFVQWL[Met(O)]NTKRNRNNIA-NH2; not fully specified; printed as HαQGTFTSDYC3KYLDSRRAQDFVQWLmNTKRNRNNIA-CONH2) [OXM121] |  |  | Receptor Selectivity (hGCGR): 0/0 |
| CCCCCCCCCCCCCCCC(=O)N[C@@H](CCC(=O)NCCCC[C@H](NC(=O)[C@H](CC(=O)O)NC(=O)[C@H](CO)NC(=O)[C@@H](NC(=O)[C@H](Cc1ccccc1)NC(=O)[C@@H](NC(=O)CNC(=O)[C@H](CCC(N)=O)NC(=O)[C@@H](CO)NC(=O)[C@@H](N)Cc1c[nH]cn1)[C@@H](C)O)[C@@H](C)O)C(=O)N[C@@H](CO)C(=O)N[C@@H](CCCCN)C(=O)N[C@@H](Cc1ccc(O)cc1)C(=O)N[C@@H](CC(C)C)C(=O)N[C@@H](CC(=O)O)C(=O)N[C@@H](CCC(=O)O)C(=O)N[C@@H](CCCNC(=N)N)C(=O)N[C@@H](CCCNC(=N)N)C(=O)N[C@@H](C)C(=O)N[C@@H](CCC(N)=O)C(=O)N[C@@H](CC(=O)O)C(=O)N[C@@H](Cc1ccccc1)C(=O)N[C@H](C(=O)N[C@@H](CCC(N)=O)C(=O)N[C@@H](Cc1c[nH]c2ccccc12)C(=O)N[C@@H](CC(C)C)C(=O)N[C@@H](CCSC)C(=O)N[C@@H](CC(N)=O)C(=O)N[C@H](C(=O)N[C@@H](CCCCN)C(=O)N[C@@H](CCC(N)=O)C(=O)O)[C@@H](C)O)C(C)C)C(=O)O [OXM414] (H-H[dS]QGTFTSDK([γGlu-Palmitoyl])SKYLDERRAQDFVQWLMNTKQ-OH; N-terminus and C-terminus assumed) | 5.4 |  |  |
| CCCC[C@H](NC(=O)[C@H](CC(C)C)NC(=O)[C@H](Cc1c[nH]c2ccccc12)NC(=O)[C@H](CCC(N)=O)NC(=O)[C@@H](NC(=O)[C@H](Cc1ccccc1)NC(=O)[C@H](CC(=O)O)NC(=O)[C@H](CCC(N)=O)NC(=O)[C@H](C)NC(=O)[C@H](CCCNC(=N)N)NC(=O)[C@H](CCCNC(=N)N)NC(=O)[C@H](CO)NC(=O)[C@H](CC(=O)O)NC(=O)[C@H](CC(C)C)NC(=O)[C@H](Cc1ccc(O)cc1)NC(=O)[C@H](CCCCN)NC(=O)[C@H](CO)NC(=O)[C@H](Cc1ccc(O)cc1)NC(=O)[C@H](CC(=O)O)NC(=O)[C@H](CO)NC(=O)[C@@H](NC(=O)[C@H](Cc1ccccc1)NC(=O)[C@@H](NC(=O)CNC(=O)[C@H](CCC(N)=O)NC(=O)C(C)(C)NC(=O)[C@@H](N)Cc1c[nH]cn1)[C@@H](C)O)[C@@H](C)O)C(C)C)C(=O)N[C@@H](CC(N)=O)C(=O)N[C@H](C(=O)N[C@@H](CCCCN)C(=O)N[C@@H](CCCNC(=N)N)C(=O)N[C@@H](CC(N)=O)C(=O)N[C@@H](CCCNC(=N)N)C(=O)N[C@@H](CC(N)=O)C(=O)N[C@@H](CC(N)=O)C(=O)N[C@H](C(=O)N[C@@H](C)C(=O)N[C@@H](CSCC(=O)OC1CC[C@@]2(C)C(=CC[C@H]3[C@@H]4CC[C@H]([C@H](C)CCCC(C)C)[C@@]4(C)CC[C@@H]32)C1)C(N)=O)[C@@H](C)CC)[C@@H](C)O (stereo partly drawn) [OXM212] (H-H[Aib]QGTFTSDYSKYLDSRRAQDFVQWL[Nle]NTKRNRNNIAC(CH2CO2(3ξ-cholesteryl))-NH2; N-terminus assumed) |  |  | GCGR + 10% plasma (fold shift) (hGCGR; EC50 with 10% plasma vs without): (92x) fold |
| HsQGTFTSDYSSYLDSRRAQDFVQWLMNTK-γE-C4-COOH [OXM355] |  | about 5 |  |
| CSCC[C@H](NC(=O)[C@H](CC(C)C)NC(=O)[C@H](Cc1c[nH]c2ccccc12)NC(=O)[C@H](CCC(N)=O)NC(=O)[C@@H](NC(=O)[C@H](Cc1ccccc1)NC(=O)[C@H](CC(=O)O)NC(=O)[C@@H]1CCCCNC(=O)CC[C@H](NC(=O)[C@H](CC(=O)O)NC(=O)[C@H](CC(C)C)NC(=O)[C@H](Cc2ccc(O)cc2)NC(=O)[C@H](CCCCN)NC(=O)[C@H](CO)NC(=O)[C@H](Cc2ccc(O)cc2)NC(=O)[C@H](CC(=O)O)NC(=O)[C@H](CO)NC(=O)[C@@H](NC(=O)[C@H](Cc2ccccc2)NC(=O)[C@@H](NC(=O)CNC(=O)[C@H](CCC(N)=O)NC(=O)[C@@H](CO)NC(=O)[C@@H](N)Cc2c[nH]cn2)[C@@H](C)O)[C@@H](C)O)C(=O)N[C@@H](CCCNC(=N)N)C(=O)N[C@@H](CCCNC(=N)N)C(=O)N[C@@H](C)C(=O)N1)C(C)C)C(=O)N[C@@H](CC(N)=O)C(=O)N[C@H](C(=O)N[C@@H](CCCCN)C(=O)N[C@@H](CCC(=O)N[C@@H](CCC(=O)N[C@@H](CSCC(=O)NCCOCCOCCOCCOCCOCCOCCOCCOCCOCCOCCOCCOCCC(=O)O[C@H]1CC[C@@]2(C)C(=CCC3C2CC[C@@]2(C)C3CC[C@@H]2C(C)CCCC(C)C)C1)C(=O)O)C(=O)O)C(=O)O)[C@@H](C)O (stereo partly drawn) [OXM392] (H-H[dS]QGTFTSDYSKYLDERRAKDFVQWLMNTK[γGlu][γGlu]C(X1)-OH; lactam 16-20) | 5.4 | about 5.4 |  |
| H-Acb-QGTFTSDYSKYLDERRAKDFVQWLMNTK-γE-γE-C10-COOH (lactam bridge between E and K) (H-H[Ac4c]QGTFTSDYSKYLDERRAKDFVQWLMNTK[γGlu][γGlu][C10]-OH; lactam 16-20) [OXM398] |  | about 5.4 |  |
